From patent US8426353B2, “Process for preparing polyurea microcapsules” (Firmenich SA, priority 2008, dated 2013)
Like-named read-outs stand apart in the source and are kept apart here.

How the values were obtained:
[1] = GC-MS analysis of perfume leaked out of the capsules during one month storage in concentrated liquid detergent; type: physicochemical; settings: for Percentage of perfume having leaked out of the capsules upon one month storage, % In Concentrated Liquid Detergent at 22° C. / Percentage of perfume having leaked out of the capsules upon one month storage, % In Concentrated Liquid Detergent at 37° C.: perfume of Example 9 encapsulated per Example 2, capsules at 1.25% in Tide 2x Concentrated HE Free; for Percentage of perfume having leaked out of the capsules upon one month storage, % In Concentrated Liquid Detergent at 22° C. / Percentage of ingredient having leaked out of the capsules during one month storage, % In concentrated Liquid Detergent 22° C.: one month at 22° C.; for Percentage of perfume having leaked out of the capsules upon one month storage, % In Concentrated Liquid Detergent at 37° C. / Percentage of ingredient having leaked out of the capsules during one month storage, % In concentrated Liquid Detergent 37° C.: one month at 37° C.; for Percentage of ingredient having leaked out of the capsules during one month storage, % In concentrated Liquid Detergent 22° C. / Percentage of ingredient having leaked out of the capsules during one month storage, % In concentrated Liquid Detergent 37° C.: perfume of Example 6 encapsulated per Example 2, capsules at 1.25% in Tide 2x Concentrated HE Free
Source text: The concentrated liquid detergent base was a commercially available Tide® 2× Concentrated HE Free of perfume & dye (trademark of Procter and Gamble, USA).
The concentrated liquid detergent base was the commercially available Tide® 2× Concentrated HE Free of perfume & dye (trademark of Procter and Gamble, USA).

[2] = GC-MS analysis of perfume leaked out of the capsules during one month storage in concentrated fabric softener; type: physicochemical; settings: for Percentage of perfume having leaked out of the capsules upon one month storage, % In fabric softener at 22° C. / Percentage of perfume having leaked out of the capsules upon one month storage, % In fabric softener at 37° C.: perfume of Example 9 encapsulated per Example 2, capsules at 1.25%; for Percentage of perfume having leaked out of the capsules upon one month storage, % In fabric softener at 22° C.: one month at 22° C.; for Percentage of perfume having leaked out of the capsules upon one month storage, % In fabric softener at 37° C. / Percentage of ingredient having leaked out of the capsules during one month storage, % In fabric softener 37° C.: one month at 37° C.; for Percentage of ingredient having leaked out of the capsules during one month storage, % In fabric softener 37° C.: perfume of Example 6 encapsulated per Example 2, capsules at 1.25%
Protocol: The concentrated fabric softener base was prepared by admixing the ingredients listed in Table 4, in the amounts indicated.

[3] = LogP of the perfume ingredients
[4] = ingredients of the perfume of Example 9 (Table 9)
[5] = ingredients of the perfume of Example 6 (Table 1)

| Structure (SMILES) | Percentage of perfume having leaked out of the capsules upon one month storage, % In Concentrated Liquid Detergent at 22° C. [1] | Percentage of perfume having leaked out of the capsules upon one month storage, % In Concentrated Liquid Detergent at 37° C. [1] | Percentage of perfume having leaked out of the capsules upon one month storage, % In fabric softener at 22° C. [2] | Percentage of perfume having leaked out of the capsules upon one month storage, % In fabric softener at 37° C. [2] | LogP [3, 4] | LogP [3] | Percentage of ingredient having leaked out of the capsules during one month storage, % In concentrated Liquid Detergent 22° C. [1] | Percentage of ingredient having leaked out of the capsules during one month storage, % In concentrated Liquid Detergent 37° C. [1] | Percentage of ingredient having leaked out of the capsules during one month storage, % In fabric softener 37° C. [2] | LogP [3, 5] |
| --- | --- | --- | --- | --- | --- | --- | --- | --- | --- | --- |
| CCCC(C)C(=O)OCC (centres unmarked) [Ethyl 2-methyl-pentanoate] | 48% | 99% | 48% | 99% | 2.76 |  |  |  |  |  |
| O=C(OC1CCCCC1)c1ccccc1O [Cyclohexyl salicylate] |  |  |  |  |  | 4.87 | 1% | 25% | 7% |  |
| CC1=CCC(C(C)CC2CCCC2=O)CC1 (stereo not drawn) [Nectalactone, (1′R)-2-[2-(4′-methyl-3′-cyclohexen-1′-yl)propyl]cyclopentanone] |  |  |  |  |  |  | 1% | 19% | 5% | 5.05 |
| CC1CCC(C(C)(C)O)CC1 (centres unmarked) [Dihydroterpineol] | 13% |  | 13% | 85% | 3.42 |  |  |  |  |  |
| CC(C=O)Cc1ccc(C(C)(C)C)cc1 (centres unmarked) [Lilial ®, 3-(4-tert-butylphenyl)-2-methylpropanal] | 0% | 18% | 0% | 7% | 4.36 | 4.36 | 1% | 14% | 3% |  |
| CCC(=O)OC1CC2CC1C1CC=CC21 (centres unmarked) [Verdyl propionate] | 5% | 51% | 5% | 8% | 3.34 |  |  |  |  |  |

Next, values leading:

| Percentage of perfume having leaked out of the capsules upon one month storage, % In Concentrated Liquid Detergent at 22° C. [1] | Percentage of perfume having leaked out of the capsules upon one month storage, % In Concentrated Liquid Detergent at 37° C. [1] | Percentage of perfume having leaked out of the capsules upon one month storage, % In fabric softener at 22° C. [2] | Percentage of perfume having leaked out of the capsules upon one month storage, % In fabric softener at 37° C. [2] | LogP [3, 4] | LogP [3] | Percentage of ingredient having leaked out of the capsules during one month storage, % In concentrated Liquid Detergent 22° C. [1] | Percentage of ingredient having leaked out of the capsules during one month storage, % In concentrated Liquid Detergent 37° C. [1] | Percentage of ingredient having leaked out of the capsules during one month storage, % In fabric softener 37° C. [2] | LogP [3, 5] | Structure (SMILES) |
| --- | --- | --- | --- | --- | --- | --- | --- | --- | --- | --- |
| 4% | 21% | 4% | 12% |  | 3.86 |  |  |  |  | CC(=O)O[C@@H]1C[C@H]2CC[C@]1(C)C2(C)C (racemic) [Isobornyl acetate] |
| 3% | 16% | 3% | 10% | 4.13 |  | 1% | 8% | 3% | 4.13 | C/C=C/C(=O)C1C(C)C=CCC1(C)C (centres unmarked) [δ-Damascone] |
|  |  |  |  |  | 5.19 | 2% | 20% | 1% |  | CC(C)=CCCC1=CCC(C)(C=O)CC1 (centres unmarked) [1-Methyl-4-(4-methyl-3-pentenyl)-3-cyclohexene-1-carbaldehyde] |
| 2% | 16% | 2% | 0% | 4.42 |  | 1% | 14% | 4% | 4.42 | CC(=O)OC(C)(C)C1CCC(C)CC1 (centres unmarked) [Dihydroterpenyl acetate] |
|  |  |  |  |  | 4.42 | 1% | 11% | 5% |  | CC(=O)OC1CCC(C(C)(C)C)CC1 (centres unmarked) [Lorysia ®, 4-(1,1-dimethylethyl)-1-cyclohexyl acetate] |
